From publication PMC8457007 (RNA, 2021)

Target: CPSF73 (Homo sapiens, UniProt Q9UKF6)
Experiment: gel-based end-point fluorescence nuclease assay with reconstituted U7 machinery
Type: biochemical

An IC50 of 0.85 µM was found for `O=C(O)CCc1cccc2c1B(O)OC2` [AN3661] in this work.
